Source: patent publication US20220235064A1 (WELLMARKER BIO CO., LTD., priority 2019, published 2022)
Structures can show the parent of a compound that is named as a salt.

Legend:
RON tyrosine kinase = molecular target: T1, RON tyrosine kinase (Homo sapiens, UniProt Q04912); test: Enzyme inhibitory activity against RON tyrosine kinase (TR-FRET); assay type: biochemical; conditions: RON (Carna Bioscience)
T1 construct: purchased Carna Bioscience
Outline: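 Recombinant RON was preincubated with compound for 15 min at RT in 50 mM HEPES pH 7.5, 10 mM MgCl2, 1 mM EGTA, 2 mM DTT, 0.01% Tween-20. Enzyme (0.4 nM), ATP (60 μM) and tyrosine peptide (400 nM) were prepared at 2×, 4× and 4× final. After 60 min at RT, EDTA/Eu-anti-phosphotyrosine stop; IC50 from 665 nm TR-FRET emission.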

[1] = test system: cancer cell line KM12C, in which RON is activated; test: Cell growth inhibitory ability in RON-activated cancer cell line (MTS); assay type: cell-based; conditions: Homo sapiens, 48 hours, absorbance 490 nm
Outline: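 KM12C cells (RON-activated, MEM with FBS) exposed to compound […] for 48 h. MTS added 24 h after treatment ended, incubated 4 h at 37° C, absorbance read at 490 nm. IC50 derived from absorbance.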

[2] = test system: cancer cell line KM12C, in which RON is activated; test: Cell-killing efficacy in RON-activated cancer cell line (trypan blue); assay type: cell-based; conditions: Homo sapiens, 48 hours, trypan blue, n=2, read-out: Cell death (%) Cancer cell line KM12C
Method: Experimental Example 3: Measurement of Cell-Killing Efficacy of Example Compounds in RON-Activated Cancer Cell Line
The cancer cell line KM12C (80015, KCLB, MEM+10% FBS), in which RON is activated, was dispensed into each 60 mm^2 dish at 1×10^5 cells. After 24 hours, the dish was treated with each of the example compounds at a concentration of 1 μM or 5 μM while performing medium exchange, and then reaction was allowed to proceed for 48 hours. After 48 hours, centrifugation was performed for 4 minutes at 1,500 rpm to collect cells and cell fluid. Thereafter, living cells and dead cells were quantified (n=2) using a trypan blue solution (15250-061, Gibco), and statistical analysis was performed using Excel-T-test. Here, as a negative control, only a solvent (0.100 DMSO) was used; and as a positive control, N-(4-(2-amino-3-chloropyridin-4-yloxy)-3-fluorophenyl)-4-ethoxy-1-(4-fluorophenyl)-2-oxo-1,2-dihydropyridine-3-carboxamide, which is the compound of Example 1 in WO 2008/058229 A1, was used.

T1 sequence (Q04912 25-1400): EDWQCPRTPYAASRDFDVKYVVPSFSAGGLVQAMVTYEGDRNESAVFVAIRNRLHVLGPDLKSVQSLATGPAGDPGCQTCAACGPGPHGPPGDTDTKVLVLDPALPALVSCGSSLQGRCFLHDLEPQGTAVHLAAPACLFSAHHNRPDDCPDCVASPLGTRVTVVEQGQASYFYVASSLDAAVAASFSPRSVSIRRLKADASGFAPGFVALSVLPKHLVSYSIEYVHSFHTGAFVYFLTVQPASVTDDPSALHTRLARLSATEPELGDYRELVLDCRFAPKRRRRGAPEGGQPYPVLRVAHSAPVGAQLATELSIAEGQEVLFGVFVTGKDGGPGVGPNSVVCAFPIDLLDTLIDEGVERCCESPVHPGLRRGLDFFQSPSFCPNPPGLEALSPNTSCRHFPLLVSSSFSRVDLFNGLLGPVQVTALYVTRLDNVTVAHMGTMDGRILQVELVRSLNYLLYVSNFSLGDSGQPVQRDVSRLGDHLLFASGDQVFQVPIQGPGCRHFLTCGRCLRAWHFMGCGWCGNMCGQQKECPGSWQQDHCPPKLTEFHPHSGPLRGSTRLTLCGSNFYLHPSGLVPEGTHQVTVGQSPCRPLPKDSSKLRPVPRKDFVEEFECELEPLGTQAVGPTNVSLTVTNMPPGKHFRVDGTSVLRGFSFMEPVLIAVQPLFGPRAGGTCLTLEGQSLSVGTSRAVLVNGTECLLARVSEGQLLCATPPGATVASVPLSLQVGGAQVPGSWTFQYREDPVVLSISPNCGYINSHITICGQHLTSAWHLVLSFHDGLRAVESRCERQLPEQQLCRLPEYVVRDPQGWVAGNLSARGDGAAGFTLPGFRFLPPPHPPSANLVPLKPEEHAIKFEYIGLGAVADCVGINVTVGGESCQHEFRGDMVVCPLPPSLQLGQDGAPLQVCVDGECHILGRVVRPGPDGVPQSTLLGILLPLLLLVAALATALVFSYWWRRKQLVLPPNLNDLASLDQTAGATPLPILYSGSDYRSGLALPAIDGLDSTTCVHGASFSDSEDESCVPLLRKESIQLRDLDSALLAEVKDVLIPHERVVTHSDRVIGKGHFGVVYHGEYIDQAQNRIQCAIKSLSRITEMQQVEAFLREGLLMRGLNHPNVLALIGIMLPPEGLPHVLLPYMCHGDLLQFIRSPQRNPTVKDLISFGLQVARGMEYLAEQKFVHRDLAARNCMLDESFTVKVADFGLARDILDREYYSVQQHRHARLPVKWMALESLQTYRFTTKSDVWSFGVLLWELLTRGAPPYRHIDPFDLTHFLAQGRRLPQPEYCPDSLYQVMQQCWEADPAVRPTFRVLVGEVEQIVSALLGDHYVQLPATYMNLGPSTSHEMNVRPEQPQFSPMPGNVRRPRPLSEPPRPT

Structure (SMILES) | IC50 (RON tyrosine kinase) [nM] | IC50 [1] [nM] | cytotoxicity at 1 µM [2] [%] | cytotoxicity at 5 µM [2] [%]
O=C(Nc1ccc(Oc2ccnc3cc(-c4ccccn4)sc23)c(F)c1)c1c2c(cn(-c3ccc(F)cc3)c1=O)CCO2 [Example 3, N-(3-Fluoro-4-((2-(pyridin-2-yl)thieno[3,2-b]pyridin-7-yl)oxy)phenyl)-5-(4-fluorophenyl)-6-oxo-2,3,5,6-tetrahydrofuro[3,2-c]pyridine-7-carboxamide] | 2.39 | 3 | 24.6 | 34
O=C(Nc1ccc(Oc2ccnc3cc(-c4ccc(CN5CCOCC5)cn4)sc23)c(F)c1)c1c2c(cn(-c3ccc(F)cc3)c1=O)CCO2 [Example 5, N-(3-Fluoro-4-((2-(5-(morpholinomethyl)pyridin-2-yl)thieno[3,2-b]pyridin-7-yl)oxy)phenyl)-5-(4-fluorophenyl)-6-oxo-2,3,5,6-tetrahydrofuro[3,2-c]pyridine-7-carboxamide hydrochloride] | 5.87 | 4 | 21.2 | 25.9
O=C(Nc1ccc(Oc2ccnc3cc(-c4ccc(CN5CCOCC5)cn4)sc23)c(F)c1)c1c2c(cn(-c3ccccc3)c1=O)CCO2 [Example 6, N-(3-Fluoro-4-((2-(5-(morpholinomethyl)pyridin-2-yl)thieno[3,2-b]pyridin-7-yl)oxy)phenyl)-6-oxo-5-phenyl-2,3,5,6-tetrahydrofuro[3,2-c]pyridine-7-carboxamide hydrochloride] | 1.43 | 2 | 29.3 | 34.3
COc1cc2nccc(Oc3ccc(NC(=O)c4c5c(cn(-c6ccccc6)c4=O)CCO5)cc3F)c2cc1OC [Example 41, N-(4-((6,7-Dimethoxyquinolin-4-yl)oxy)-3-fluorophenyl)-6-oxo-5-phenyl-2,3,5,6-tetrahydrofuro[3,2-c]pyridine-7-carboxamide] | 2.86 | 2 | 16 | 21.4
COc1cc2ncnc(Oc3ccc(NC(=O)c4c5c(cn(-c6ccc(F)cc6)c4=O)CCO5)cc3F)c2cc1OC [Example 46, N-(4-((6,7-Dimethoxyquinazolin-4-yl)oxy)-3-fluorophenyl)-5-(4-fluorophenyl)-6-oxo-2,3,5,6-tetrahydrofuro[3,2-c]pyridine-7-carboxamide] | 2.39 | 6 | 23.7 | 27.4
COc1cc2nccc(Oc3ccc(NC(=O)c4c5c(cn(-c6ccc(F)cc6)c4=O)CCO5)cc3F)c2cc1C(N)=O [Example 47, N-(4-((6-Carbamoyl-7-methoxyquinolin-4-yl)oxy)-3-fluorophenyl)-5-(4-fluorophenyl)-6-oxo-2,3,5,6-tetrahydrofuro[3,2-c]pyridine-7-carboxamide] | 0.47 | 2 | 18 | 30.9
CNC(=O)c1cc2c(Oc3ccc(NC(=O)c4c5c(cn(-c6ccc(F)cc6)c4=O)CCO5)cc3F)ccnc2cc1OC [Example 48, N-(3-Fluoro-4-((7-methoxy-6-(methylcarbamoyl)quinolin-4-yl)oxy)phenyl)-5-(4-fluorophenyl)-6-oxo-2,3,5,6-tetrahydrofuro[3,2-c]pyridine-7-carboxamide] | 0.85 | 1 | 18.9 | 15.5
COc1cc2nccc(Oc3ccc(NC(=O)c4c5c(cn(-c6ccc(F)cc6)c4=O)CCO5)cc3F)c2cc1C(=O)NCCN1CCOCC1 [Example 50, N-(3-Fluoro-4-((7-methoxy-6-((2-morpholinoethyl)carbamoyl)quinolin-4-yl)oxy)phenyl)-5-(4-fluorophenyl)-6-oxo-2,3,5,6-tetrahydrofuro[3,2-c]pyridine-7-carboxamide] | 1.18 | 2 | 19.4 | 32.3
COc1cc2c(Oc3ccc(NC(=O)c4c5c(cn(-c6ccc(F)cc6)c4=O)CCO5)cc3F)ccnc2cc1OCCN1CCOCC1 [Example 78, N-(3-Fluoro-4-((6-methoxy-7-(2-morpholinoethoxy)quinolin-4-yl)oxy)phenyl)-5-(4-fluorophenyl)-6-oxo-2,3,5,6-tetrahydrofuro[3,2-c]pyridine-7-carboxamide] | 2.63 | 2 | 23.5 | 23.9
COc1cc2c(Oc3ccc(NC(=O)c4c5c(cn(-c6ccc(F)cc6)c4=O)CCO5)cc3F)ccnc2cc1OCCCN1CCN(C)CC1 [Example 80, N-(3-Fluoro-4-((6-methoxy-7-(3-(4-methylpiperazin-1-yl)propoxy)quinolin-4-yl)oxy)phenyl)-5-(4-fluorophenyl)-6-oxo-2,3,5,6-tetrahydrofuro[3,2-c]pyridine-7-carboxamide] | 1.3 | 3 | 19.5 | 19.9
CN1CCN(CCCOc2ccc3c(Oc4ccc(NC(=O)c5c6c(cn(-c7ccc(F)cc7)c5=O)CCO6)cc4F)ccnc3c2)CC1 [Example 160, N-(3-Fluoro-4-((7-(3-(4-methylpiperazin-1-yl)propoxy)quinolin-4-yl)oxy)phenyl)-5-(4-fluorophenyl)-6-oxo-2,3,5,6-tetrahydrofuro[3,2-c]pyridine-7-carboxamide] | 1.01 | 6 | 12.7 | 19.4
O=C(Nc1ccc(Oc2ccnc3cc(OCCCN4CCCCC4)ccc23)c(F)c1)c1c2c(cn(-c3ccc(F)cc3)c1=O)CCO2 [Example 161] | 0.61 | 7 | 23.4 | 22
CNC(=O)c1cc2c(Oc3ccc(NC(=O)c4c5c(cn(-c6ccc(F)cc6)c4=O)CCO5)cc3F)ccnc2cc1OCCCN1CCOCC1 [Example 164, N-(3-Fluoro-4-((6-(methylcarbamoyl)-7-(3-morpholinopropoxy)quinolin-4-yl)oxy)phenyl)-5-(4-fluorophenyl)-6-oxo-2,3,5,6-tetrahydrofuro[3,2-c]pyridine-7-carboxamide] | 1.46 | 1 | 19.4 | 29.7
CNC(=O)c1cc2nccc(Oc3ccc(NC(=O)c4c5c(cn(-c6ccc(F)cc6)c4=O)CCO5)cc3F)c2cc1OC [Example 165, N-(3-Fluoro-4-((6-methoxy-7-(methylcarbamoyl)quinolin-4-yl)oxy)phenyl)-5-(4-fluorophenyl)-6-oxo-2,3,5,6-tetrahydrofuro[3,2-c]pyridine-7-carboxamide] | 0.45 | 3 | 7.3 | 32.9
CNC(=O)c1cc2nccc(Oc3ccc(NC(=O)c4c5c(cn(-c6ccc(F)cc6)c4=O)CCO5)cc3F)c2cc1OCCN1CCOCC1 [Example 166, N-(3-Fluoro-4-((7-(methylcarbamoyl)-6-(2-morpholinoethoxy)quinolin-4-yl)oxy)phenyl)-5-(4-fluorophenyl)-6-oxo-2,3,5,6-tetrahydrofuro[3,2-c]pyridine-7-carboxamide] | 1.9 | 16 | 11.4 | 14.9
O=C(Nc1ccc(Oc2ccnc3cc(OCCCN4CCOCC4)c(Cl)cc23)c(F)c1)c1c2c(cn(-c3ccc(F)cc3)c1=O)CCO2 [Example 172, N-(4-((6-Chloro-7-(3-morpholinopropoxy)quinolin-4-yl)oxy)-3-fluorophenyl)-5-(4-fluorophenyl)-6-oxo-2,3,5,6-tetrahydrofuro[3,2-c]pyridine-7-carboxamide] | 7.44 | 15 | 3.19 | 11.6
COc1cc2nccc(Oc3ccc(NC(=O)c4c5c(cn(-c6ccc(F)cc6)c4=O)CCO5)cc3F)c2cc1N [Example 179, N-(4-((6-Amino-7-methoxyquinolin-4-yl)oxy)-3-fluorophenyl)-5-(4-fluorophenyl)-6-oxo-2,3,5,6-tetrahydrofuro[3,2-c]pyridine-7-carboxamide] | 0.47 | 3 | – | –
COc1cc2nccc(Oc3ccc(NC(=O)c4c5c(cn(-c6ccc(F)cc6)c4=O)CCO5)cc3F)c2cc1NCCCN1CCOCC1 [Example 186, N-(3-Fluoro-4-((7-methoxy-6-((3-morpholinopropyl)amino)quinolin-4-yl)oxy)phenyl)-5-(4-fluorophenyl)-6-oxo-2,3,5,6-tetrahydrofuro[3,2-c]pyridine-7-carboxamide] | 7.52 | 3 | – | –
